Source: PubChem BioAssay AID1259407 (Chemical Carcinogenesis Research Information System (CCRIS), 2018)
Activity calls are given as the source filed them. The rule behind the calls is not given here.

Test system: CCRIS mutagenicity, Ames/micronucleus/aberration tests
Assay: CCRIS mutagenicity studies
[1] = Test System: AMES SALMONELLA TYPHIMURIUM, Strain/Indicator: TA98, Metabolic Activation: NONE, Method: PREINCUBATION
[2] = Test System: AMES SALMONELLA TYPHIMURIUM, Strain/Indicator: TA100, Metabolic Activation: NONE, Method: PREINCUBATION
[3] = Test System: AMES SALMONELLA TYPHIMURIUM, Strain/Indicator: TA98, Metabolic Activation: NONE, Method: STANDARD PLATE
[4] = Test System: AMES SALMONELLA TYPHIMURIUM, Strain/Indicator: TA100, Metabolic Activation: NONE, Method: STANDARD PLATE

C=CC(C)C#N (stereo not drawn)
mutagenic call (Test System: AMES SALMONELLA TYPHIMURIUM, Strain/Indicator: TA97, Metabolic Activation: HAMSTER, LIVER, S-9, AROCLOR 1254 (5 OR 30%), Method: PREINCUBATION): inactive; negative
mutagenic call (Test System: AMES SALMONELLA TYPHIMURIUM, Strain/Indicator: TA97, Metabolic Activation: HAMSTER, LIVER, S-9, AROCLOR 1254 (10%), Method: PREINCUBATION): inactive; negative
mutagenic call (Test System: AMES SALMONELLA TYPHIMURIUM, Strain/Indicator: TA97, Metabolic Activation: NONE, Method: PREINCUBATION): inactive; negative
mutagenic call (Test System: AMES SALMONELLA TYPHIMURIUM, Strain/Indicator: TA97, Metabolic Activation: RAT, LIVER, S-9, AROCLOR 1254 (10%), Method: PREINCUBATION): inactive; negative
mutagenic call (Test System: AMES SALMONELLA TYPHIMURIUM, Strain/Indicator: TA97, Metabolic Activation: RAT, LIVER, S-9, AROCLOR 1254 (30%), Method: PREINCUBATION): inactive; negative
mutagenic call (Test System: AMES SALMONELLA TYPHIMURIUM, Strain/Indicator: TA98, Metabolic Activation: HAMSTER, LIVER, S-9, AROCLOR 1254 (10%), Method: PREINCUBATION): inactive; negative
mutagenic call (Test System: AMES SALMONELLA TYPHIMURIUM, Strain/Indicator: TA98, Metabolic Activation: HAMSTER, LIVER, S-9, AROCLOR 1254 (30%), Method: PREINCUBATION): inactive; negative
mutagenic call [1]: inactive; negative
mutagenic call (Test System: AMES SALMONELLA TYPHIMURIUM, Strain/Indicator: TA98, Metabolic Activation: RAT, LIVER, S-9, AROCLOR 1254 (10%), Method: PREINCUBATION): inactive; negative
mutagenic call (Test System: AMES SALMONELLA TYPHIMURIUM, Strain/Indicator: TA98, Metabolic Activation: RAT, LIVER, S-9, AROCLOR 1254 (30%), Method: PREINCUBATION): inactive; negative
mutagenic call (Test System: AMES SALMONELLA TYPHIMURIUM, Strain/Indicator: TA100, Metabolic Activation: HAMSTER, LIVER, S-9, AROCLOR 1254 (10%), Method: PREINCUBATION): inactive; negative
mutagenic call (Test System: AMES SALMONELLA TYPHIMURIUM, Strain/Indicator: TA100, Metabolic Activation: HAMSTER, LIVER, S-9, AROCLOR 1254 (30%), Method: PREINCUBATION): inactive; negative
mutagenic call [2]: inactive; negative
mutagenic call (Test System: AMES SALMONELLA TYPHIMURIUM, Strain/Indicator: TA100, Metabolic Activation: RAT, LIVER, S-9, AROCLOR 1254 (10%), Method: PREINCUBATION): inactive; negative
mutagenic call (Test System: AMES SALMONELLA TYPHIMURIUM, Strain/Indicator: TA100, Metabolic Activation: RAT, LIVER, S-9, AROCLOR 1254 (30%), Method: PREINCUBATION): inactive; negative
mutagenic call (Test System: AMES SALMONELLA TYPHIMURIUM, Strain/Indicator: TA1535, Metabolic Activation: HAMSTER, LIVER, S-9, AROCLOR 1254 (10%), Method: PREINCUBATION): inactive; negative
mutagenic call (Test System: AMES SALMONELLA TYPHIMURIUM, Strain/Indicator: TA1535, Metabolic Activation: HAMSTER, LIVER, S-9, AROCLOR 1254 (30%), Method: PREINCUBATION): inactive; negative
mutagenic call (Test System: AMES SALMONELLA TYPHIMURIUM, Strain/Indicator: TA1535, Metabolic Activation: NONE, Method: PREINCUBATION): inactive; negative
mutagenic call (Test System: AMES SALMONELLA TYPHIMURIUM, Strain/Indicator: TA1535, Metabolic Activation: RAT, LIVER, S-9, AROCLOR 1254 (10%), Method: PREINCUBATION): inactive; negative
mutagenic call (Test System: AMES SALMONELLA TYPHIMURIUM, Strain/Indicator: TA1535, Metabolic Activation: RAT, LIVER, S-9, AROCLOR 1254 (30%), Method: PREINCUBATION): inactive; negative
mutagenic call (Test System: AMES SALMONELLA TYPHIMURIUM, Strain/Indicator: TA1537, Metabolic Activation: HAMSTER, LIVER, S-9, AROCLOR 1254 (30%), Method: PREINCUBATION): inactive; negative
mutagenic call (Test System: AMES SALMONELLA TYPHIMURIUM, Strain/Indicator: TA1537, Metabolic Activation: NONE, Method: PREINCUBATION): inactive; negative
mutagenic call (Test System: AMES SALMONELLA TYPHIMURIUM, Strain/Indicator: TA1537, Metabolic Activation: RAT, LIVER, S-9, AROCLOR 1254 (30%), Method: PREINCUBATION): inactive; negative

Cc1ccccc1NC(=O)c1csc([N+](=O)[O-])c1
mutagenic call [3]: active; positive
mutagenic call [4]: active; positive

O=[N+]([O-])c1ccccc1CBr
mutagenic call [1]: inactive; negative
mutagenic call [2]: inactive; negative
mutagenic call (Test System: AMES SALMONELLA TYPHIMURIUM, Strain/Indicator: TA100, Metabolic Activation: RAT, LIVER, S-9, AROCLOR 1254, Method: PREINCUBATION): inactive; negative

O=C(O)CN(CCN(CC(=O)O)Cc1ccccc1O)Cc1ccccc1O
mutagenic call (Test System: Mouse lymphoma, Strain/Indicator: L5178Y (tk+/tk-), Metabolic Activation: None, Method: Suspension/plate): active; positive
mutagenic call (Test System: Mouse lymphoma, Strain/Indicator: L5178Y (tk+/tk-), Metabolic Activation: Rat, Liver, S-9, Aroclor 1254, Method: Suspension/plate): active; positive

O=C(O)c1cc(=O)c2cccc(O)c2[nH]1
mutagenic call [2]: inactive; negative

C=C(C)C1CCC(=C)C2C3=C(C[C@@H](C)C3=O)C(=O)C(C)=C[C@@H]12 (stereo partly drawn)
mutagenic call [3]: inactive; negative
mutagenic call (Test System: AMES SALMONELLA TYPHIMURIUM, Strain/Indicator: TA98, Method: STANDARD PLATE): inactive; negative
mutagenic call [4]: inactive; negative
mutagenic call (Test System: AMES SALMONELLA TYPHIMURIUM, Strain/Indicator: TA100, Method: STANDARD PLATE): inactive; negative

Cc1ccc(N=[N+]([O-])c2ccc(C)c(N)c2)cc1N
mutagenic call [1]: inactive; negative
mutagenic call (Test System: AMES SALMONELLA TYPHIMURIUM, Strain/Indicator: TA98, Metabolic Activation: NONE, Method: SUSPENSION/PLATE): inactive; negative
mutagenic call (Test System: AMES SALMONELLA TYPHIMURIUM, Strain/Indicator: TA98, Metabolic Activation: RAT, LIVER, S-9, PCB, Method: PREINCUBATION): active; positive
mutagenic call (Test System: AMES SALMONELLA TYPHIMURIUM, Strain/Indicator: TA98, Metabolic Activation: RAT, LIVER, S-9, PHENOBARBITAL AND 5,6-BENZOFLAVONE, Method: SUSPENSION/PLATE): active; positive
mutagenic call (Test System: AMES SALMONELLA TYPHIMURIUM, Strain/Indicator: TA100, Metabolic Activation: NONE, Method: SUSPENSION/PLATE): inactive; negative
mutagenic call (Test System: AMES SALMONELLA TYPHIMURIUM, Strain/Indicator: TA100, Metabolic Activation: RAT, LIVER, S-9, PHENOBARBITAL AND 5,6-BENZOFLAVONE, Method: SUSPENSION/PLATE): inactive; negative

Oc1cc(O)c2c(c1)O[C@H](c1cc(O)c(O)c(O)c1)[C@H](O)C2
mutagenic call (End Point: In vitro chromosomal aberrations, Test System: Chinese hamster (CHL/IU) cells, Metabolic Activation: None): active; positive (structural changes: gaps, breaks, aberrations)
mutagenic call (Test System: Ames Salmonella typhimurium, Strain/Indicator: TA102, Metabolic Activation: None, Method: Preincubation): inactive; negative
mutagenic call (Test System: Ames Salmonella typhimurium, Strain/Indicator: TA102, Metabolic Activation: Rat, Liver, S-9, Aroclor 1254 in 0.154 M KCl, Method: Preincubation): inactive; negative
mutagenic call (Test System: E. coli, Strain/Indicator: WP2 uvrA/pKM101, Metabolic Activation: None, Method: Preincubation): inactive; negative

O=c1[nH]cc2ccc3cccc4ccc1c2c34
mutagenic call [3]: inactive; negative
mutagenic call (Test System: AMES SALMONELLA TYPHIMURIUM, Strain/Indicator: TA98, Metabolic Activation: RAT, LIVER, S-9, AROCLOR 1254, Method: STANDARD PLATE): inactive; negative
mutagenic call [4]: inactive; negative
mutagenic call (Test System: AMES SALMONELLA TYPHIMURIUM, Strain/Indicator: TA100, Metabolic Activation: RAT, LIVER, S-9, AROCLOR 1254, Method: STANDARD PLATE): inactive; negative

C=CCS(=O)(=O)CC=C
mutagenic call (End Point: In vivo micronucleus, Test System: Peripheral blood reticulocytes, Species: Mouse, Strain/Sex: F1 (Big Blue x A/J) transgenic/Male and female, Route: Oral): inactive; negative

Oc1c(Cl)cccc1Cl
mutagenic call (Test System: CHINESE HAMSTER V-79, Strain/Indicator: V-79/6-THIOGUANINE, Metabolic Activation: CELL-MEDIATED, Method: STANDARD PLATE): inactive; negative
mutagenic call (Test System: CHINESE HAMSTER V-79, Strain/Indicator: V-79/6-THIOGUANINE, Metabolic Activation: NONE, Method: STANDARD PLATE): inactive; negative
mutagenic call (Test System: CHINESE HAMSTER V-79, Strain/Indicator: V-79/6-THIOGUANINE, Metabolic Activation: PRIMARY RAT HEPATOCYTES, Method: STANDARD PLATE): inactive; negative
